Structures can show the parent of a compound that is named as a salt. Values belong to the molecule of their own block, whether it stands above or below them.
Legend:
[1] = tested on: endothelium of H441-HUVEC co-culture; assay: IL-8 on the endothelial side of the H441/HUVEC co-culture (ELISA); format: cell-based, human; conditions: 24-hour exposure on the epithelial side
Description: Then, IL-8 produced on the endothelial side was measured by ELISA (R&D Systems). […] Statistics were performed in GraphPad Prism 9.
Cytokine quantitation. Cell culture supernatants were collected at specified intervals. IL-6 and IL-8 were quantified with ELISA assays according to manufacturer instructions (Human IL-6 DuoSet ELISA, R&D Systems DY206-05; Human IL-8/CXCL8 DuoSet ELISA, R&D Systems, DY208-05; DuoSet ELISA Ancillary Reagent Kit 2, R&D Systems; DY008.

[2] = tested on: endothelium of H441-HUVEC co-culture; assay: Endothelial von Willebrand factor release after epithelial exposure; format: cell-based, human; conditions: epithelial side exposed for 10 minutes
Description: Staining and imaging. All stains used reagents from ThermoFisher's Image-iT™ Fixation/Permeabilization Kit (R37602) for washing, fixing, blocking, and permeabilization. For all stains, inserts were cut out and fixed on glass slides for 10 minutes at 37° C. For stains requiring permeabilization, the inserts were incubated with 0.5% Triton X (ImageIT kit) for 5 minutes at 37° C. All inserts were blocked for 1 hour at 37° C., counterstained with DAPI (1:1000 in PBS for 5 minutes) and mounted between two coverslips with ProLong™ Diamond Antifade Mountant (Invitrogen). F-actin. After fixation, permeabilization, and blocking, inserts were incubated for 1 hour at 37° C. in Alexa Fluor™ 647 Phalloidin (Invitrogen) diluted 1:20 from stock solution in 1% BSA (Image-iT™). ZO-1/e-cadherin co-stain. After fixation, permeabilization, and blocking, the primary antibodies (ZO-1 Rabbit anti-human polyclonal antibody, ThermoFisher 61-7300, 1:200; e-cadherin Mouse anti-human monoclonal antibody, ThermoFisher 13-1700, 1:2000) were suspended together in 1% BSA (Image-It Kit) and co-incubated with the inserts for 2 hours at 37° C. The secondary antibodies (Goat anti-Rabbit IgG, Alexa Fluor 405, Abcam ab 175665, 1:200; Goat anti-mouse IgG, Alexa Fluor 647, ThermoFisher A32728, 1:500) were suspended in 1% BSA and incubated with the filters for 2 hours at 37° C. […]

[3] = tested on: primary human neutrophils; assay: Neutrophil transmigration to chemoattractant or sample in 96-well co-culture, counted by flow cytometry; format: cell-based; conditions: for number of counted transmigrated neutrophils versus chemoattractant dose: 3 healthy donors, 16 hours, two-way ANOVA p<0.0001
[4] = Sodium fluorescein permeability across epithelial-endothelial co-culture; format: in vitro ADME; conditions: human
HUVEC = assay: Tolerance of HUVEC to puromycin in routine culture; format: cell-based, human; conditions: long time periods; unpublished observation
Description: HUVEC maintenance in T-75 flasks. Primary Human Umbilical Vein Endothelial Cells were employed from ATCC (ATCC® PCS-100-013™) and expanded according to manufacturer instructions in Vascular Cell Basal Medium (ATCC® PCS-100-030™) supplemented with Endothelial Cell Growth Kit-VEGF (ATCC® PCS-100-041™) with added Penicillin-Streptomycin (Gibco™ 15140148) diluted 1:100 v:v. HUVECs were transduced to constitutively express RFP. […] Cells were passaged at 60-80% confluence according to manufacturer instructions, counted with Nexcelcom Cellometer Auto T4 Bright Field Cell Counter (Nexcelcom Bioscience) using Trypan Blue viability stain, and used below the passage 10 since expanding from ATCC.
Lentiviral transduction. H441 cells and HUVECs were transduced with lentivirus to constitutively express GFP and RFP, respectively. H441 cells were seeded in T-75 flasks at 0.75e6 cells/75 cm^2 and allowed to attach overnight. Then H441 cells were inoculated with GFP gene-bearing lentivirus with puromycin resistance (Brand, product #). Lentivirus (8 TU/cell) was suspended in H441 routine culture media with the addition of transfection reagent polybrene ([…]). The cells were inoculated overnight and then allowed to recover in routine cell culture media for 72 hours with media changes every 48 hours. […]

Molecule: polyinosinic:polycytidylic acid [poly(I:C)]
endothelial release of IL-8 [1]: weakly dose-dependent
endothelial von Willebrand factor (VWF) exocytosis [2]: immediately exocytosed von Willebrand factor

Molecule: IL-8: recombinant human protein IL-8 (HEK-expressed, activity tested), chemoattractant
number of counted transmigrated neutrophils versus chemoattractant dose [3]: effect of chemoattractant dose
neutrophil transmigration numbers versus concentration ([3]; 18 hour transmigration time): increase

Molecule: CCCCC/C=C\C[C@@H](O)/C=C/C=C/C=C\[C@@H](O)CCCC(=O)O [LTB4, leukotriene B4]
number of counted transmigrated neutrophils versus chemoattractant dose [3]: effect of chemoattractant dose

Papp at 2 h, 30 µM ([4]; H441/HUVEC co-culture at ALI, S.D. 1.63e-5 cm/s, 95% CI 1.53e-6-1.25e-5 cm/s): 7.04 ×10⁻⁶ cm/s
Papp at 3 h, 30 µM ([4]; control, no exposure, at ALI, over a 3-hour period, n=4, read-out: permeability of the control bilayer co-culture): 7.04 ×10⁻⁶ cm/s
Molecule: O=C1OC2(c3ccc(O)cc3Oc3cc(O)ccc32)c2ccccc21 [NaFL, Fluorescein sodium salt]

Molecule: COc1ccc(C[C@H](N)C(=O)N[C@H]2[C@@H](O)[C@H](n3cnc4c(N(C)C)ncnc43)O[C@@H]2CO)cc1 [puromycin]
tolerance by HUVEC in routine culture medium (HUVEC): did not tolerate it well for long time periods
